Results: US20240307434A1, “USE OF LUTETIUM SALT COMPOUNDS FOR ANTIVIRAL EFFECT” (priority 2022, published 2024)

Tested on: Adenovirus, Poliovirus, Herpes Simplex Type 1 and Herpes Simplex Type 2, Coronavirus and Norovirus strains

## lutetium Borate [LuBO3]
  antiviral efficacy: exhibit antiviral efficacy
